“Also recorded” adds a separate entry of the source. Like-named read-outs stand apart in the source and are kept apart here. Blank lines part the entries; values can stand above or below the compound they belong to.
Columns and labels:
PSMA = PSMA (Homo sapiens, UniProt Q04609); assay: Measurement of binding capacity: competition with [^125I]30 on 22RV1 cells; design: host or cells: 22RV1 human prostate cancer cells
Experimental: To confirm the binding capacity of the compounds of the present invention to PSMA, the following experiment was performed.
RPMI1640 supplemented with 1% BSA (bovine serum albumin) was used as a buffer solution.
[^125I]30 (0.1 nM) obtained in Comparative Example 1 was added to a vessel containing 22RV1 cells (5×10^4), to which the compound represented by formula 1 was loaded at 9 concentrations (1.00×10^−4˜1.00×10^−12 M), followed by stirring at 37° C. for 2 hours. Upon completion of the stirring, the vessel was washed with PBS solution (2 mL) three times, and then the radioactivity was measured using a gamma counter (2480 WIZARD2 Gamma Counter PerkinElmer Co., MA). The 50% inhibition concentration (IC50) for each compound was calculated using a GraphPad Prism program (GraphPad Software, Inc., CA)
(Maresca, K. P. et al., 2009, J. Med. Chem. 52, 347-357)

PSMA^+ PC-3 PIP tumors = assay: MicroPET/CT imaging of mice transplanted with prostate cancer cell lines; assay type: in vivo, nude mouse
Experimental: A tumor model was prepared by subcutaneously injecting PSMA^+ PC-3 PIP cells (a human prostate cancer cell line) to the right side of the nude mouse hind leg. Each of the ^68Ga-labeled compounds [^68Ga]1e, [^68Ga]1g, [^68Ga]1h and [^68Ga]1k was intravenously injected with 5.5 to 6.5 MBq (148-175 μCi/200 μL), and PET/CT images were obtained using small animal INVEON PET/CT (Siemens medical solutions, Knoxville, USA) for 60 minutes. After 150 minutes, 270 minutes, and 390 minutes, PET/CT images were also obtained for 30 minutes. The obtained PET/CT image results were quantitatively analyzed using Inveon™ Research Workplace (IRW).
FIGS. 1, 2, 3, and 4 are graphs showing the quantitative analysis results of MicorPET/CT images for [^68Ga]1e, [^68Ga]1g, [^68Ga]1h, and [^68Ga]1k in % injected dose (ID)/g, and summarized in Tables 3, 4, 5, and 6, respectively.

[1] = 22RV1 cells, [^125I]30 0.1 nM, 37° C., 2 hours, read-out: IC50
[2] = 22RV1 cells, [^125I]30 0.1 nM, 37° C., 2 hours, read-out: Ki value

PSMA, sequence (Q04609 whole entry): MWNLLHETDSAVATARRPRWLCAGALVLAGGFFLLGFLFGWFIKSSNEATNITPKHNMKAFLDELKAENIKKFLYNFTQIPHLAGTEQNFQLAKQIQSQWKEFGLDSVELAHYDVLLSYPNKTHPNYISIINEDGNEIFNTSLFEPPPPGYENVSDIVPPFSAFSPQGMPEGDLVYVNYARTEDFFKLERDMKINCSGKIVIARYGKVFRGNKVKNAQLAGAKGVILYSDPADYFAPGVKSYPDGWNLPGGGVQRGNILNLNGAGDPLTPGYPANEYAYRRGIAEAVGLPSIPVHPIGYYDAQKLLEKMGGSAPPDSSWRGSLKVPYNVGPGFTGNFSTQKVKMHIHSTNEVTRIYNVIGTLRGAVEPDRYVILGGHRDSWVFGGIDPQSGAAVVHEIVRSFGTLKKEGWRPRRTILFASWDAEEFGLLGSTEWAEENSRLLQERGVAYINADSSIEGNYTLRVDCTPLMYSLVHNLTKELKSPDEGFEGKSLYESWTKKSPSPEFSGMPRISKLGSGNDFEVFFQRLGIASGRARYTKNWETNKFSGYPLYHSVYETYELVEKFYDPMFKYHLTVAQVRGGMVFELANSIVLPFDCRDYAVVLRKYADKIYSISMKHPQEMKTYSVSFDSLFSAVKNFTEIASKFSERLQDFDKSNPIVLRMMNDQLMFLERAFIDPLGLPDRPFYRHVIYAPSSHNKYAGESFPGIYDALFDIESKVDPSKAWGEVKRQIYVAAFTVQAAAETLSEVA

IC50 (PSMA; [1]): 63.9 ± 6.09 nM | Ki (PSMA; [2]): 12.7 ± 1.07 nM
SMILES: O=C(O)CC[C@H](NC(=O)N[C@@H](CCCCN(CC(=O)O)C(=O)COCCNC(=O)[C@H](CCCCNC(=O)CCCc1ccc(I)cc1)NC(=O)CN1CCN2CCN3CCN(CC1)CC(=O)[O][Ga]([O]C(=O)C2)[O]C(=O)C3)C(=O)O)C(=O)O [Ga-1k]

IC50 (PSMA; [1]): 25.7 ± 5.06 nM | Ki (PSMA; [2]): 8.12 ± 1.6 nM
SMILES: O=C(O)CC[C@H](NC(=O)N[C@@H](CCCCN(CC(=O)O)C(=O)COCCOCCNC(=O)[C@H](CCCCNC(=O)CCCc1ccccc1)NC(=O)CN1CCN2CCN3CCN(CC1)CC(=O)[O][Ga]([O]C(=O)C2)[O]C(=O)C3)C(=O)O)C(=O)O [Ga-1f]
binding force / binding capacity to PSMA, in words (PSMA; 22RV1 cells): higher binding capacity than the compound Ga-1e

IC50 (PSMA; [1]): 1140 ± 82.4 nM | Ki (PSMA; [2]): 282 ± 20.4 nM
SMILES: O=C(O)CC[C@H](NC(=O)N[C@@H](CCC(=O)N(CCOCCOCCNC(=O)CN1CCN2CCN3CCN(CC1)CC(=O)[O][Ga]([O]C(=O)C2)[O]C(=O)C3)CCC(=O)O)C(=O)O)C(=O)O [Ga-1o]

IC50 (PSMA; [1]): 69 ± 3.27 nM | Ki (PSMA; [2]): 14.4 ± 0.68 nM
SMILES: O=C(O)CC[C@H](NC(=O)N[C@@H](CCCCN(CC(=O)O)C(=O)COCCNC(=O)CN1CCN2CCN3CCN(CC1)CC(=O)[O][Ga]([O]C(=O)C2)[O]C(=O)C3)C(=O)O)C(=O)O [Ga-1i]

Further lines, the compound ahead of its results:

SMILES: O=C(O)CC[C@H](NC(=O)N[C@@H](CCCCNC(=O)N(Cc1cn(CCOCCNC(=O)CN2CCN3CCN4CCN(CC2)CC(=O)[O][Ga]([O]C(=O)C3)[O]C(=O)C4)nn1)c1ccncc1)C(=O)O)C(=O)O [Ga-1b]
IC50 (PSMA; [1]): 237 ± 47.1 nM | Ki (PSMA; [2]): 18.7 ± 1.87 nM

SMILES: O=C(O)CCC(NC(=O)NC(CCCCN(CC(=O)O)C(=O)COCCNC(=O)C(CCCCNC(=O)CCCc1ccc(I)cc1)NC(=O)CN1CCN2CCN3CCN(CC1)CC(=O)[O][68Ga]([O]C(=O)C2)[O]C(=O)C3)C(=O)O)C(=O)O (stereo not shown) [[^68Ga]1k]
intake of mouse organ: Bladder (PSMA^+ PC-3 PIP tumors; 10 min after injection): 4.12 ± 0.45 % ID/g | intake of mouse organ: Heart (PSMA^+ PC-3 PIP tumors; 10 min after injection): 21.67 ± 0.44 % ID/g | intake of mouse organ: Kidney (PSMA^+ PC-3 PIP tumors; 10 min after injection): 11.16 ± 1.35 % ID/g | intake of mouse organ: Liver (PSMA^+ PC-3 PIP tumors; 10 min after injection): 11.99 ± 4.72 % ID/g | intake of mouse organ: Muscle (PSMA^+ PC-3 PIP tumors; 10 min after injection): 2.26 ± 0.75 % ID/g | intake of mouse organ: Tumor (PIP) (PSMA^+ PC-3 PIP tumors; 10 min after injection): 1.85 ± 0.25 % ID/g | intake of mouse organ: Bladder (PSMA^+ PC-3 PIP tumors; 20 min after injection): 4.68 ± 0.22 % ID/g | intake of mouse organ: Heart (PSMA^+ PC-3 PIP tumors; 20 min after injection): 20.10 ± 0.29 % ID/g | intake of mouse organ: Kidney (PSMA^+ PC-3 PIP tumors; 20 min after injection): 11.21 ± 1.62 % ID/g | intake of mouse organ: Liver (PSMA^+ PC-3 PIP tumors; 20 min after injection): 11.09 ± 3.46 % ID/g | intake of mouse organ: Muscle (PSMA^+ PC-3 PIP tumors; 20 min after injection): 2.91 ± 1.21 % ID/g | intake of mouse organ: Tumor (PIP) (PSMA^+ PC-3 PIP tumors; 20 min after injection): 3.22 ± 0.38 % ID/g | intake of mouse organ: Bladder (PSMA^+ PC-3 PIP tumors; 30 min after injection): 4.68 ± 0.45 % ID/g | intake of mouse organ: Heart (PSMA^+ PC-3 PIP tumors; 30 min after injection): 18.33 ± 0.13 % ID/g | intake of mouse organ: Kidney (PSMA^+ PC-3 PIP tumors; 30 min after injection): 10.89 ± 1.36 % ID/g | intake of mouse organ: Liver (PSMA^+ PC-3 PIP tumors; 30 min after injection): 10.04 ± 2.73 % ID/g | intake of mouse organ: Muscle (PSMA^+ PC-3 PIP tumors; 30 min after injection): 3.09 ± 0.91 % ID/g | intake of mouse organ: Tumor (PIP) (PSMA^+ PC-3 PIP tumors; 30 min after injection): 3.94 ± 0.38 % ID/g | intake of mouse organ: Bladder (PSMA^+ PC-3 PIP tumors; 40 min after injection): 4.75 ± 0.21 % ID/g | intake of mouse organ: Heart (PSMA^+ PC-3 PIP tumors; 40 min after injection): 17.22 ± 0.35 % ID/g | intake of mouse organ: Kidney (PSMA^+ PC-3 PIP tumors; 40 min after injection): 11.06 ± 1.02 % ID/g | intake of mouse organ: Liver (PSMA^+ PC-3 PIP tumors; 40 min after injection): 9.31 ± 2.32 % ID/g | intake of mouse organ: Muscle (PSMA^+ PC-3 PIP tumors; 40 min after injection): 3.32 ± 1.20 % ID/g | intake of mouse organ: Tumor (PIP) (PSMA^+ PC-3 PIP tumors; 40 min after injection): 4.40 ± 0.36 % ID/g | intake of mouse organ: Bladder (PSMA^+ PC-3 PIP tumors; 50 min after injection): 4.83 ± 0.18 % ID/g | intake of mouse organ: Heart (PSMA^+ PC-3 PIP tumors; 50 min after injection): 16.06 ± 0.38 % ID/g | intake of mouse organ: Kidney (PSMA^+ PC-3 PIP tumors; 50 min after injection): 10.80 ± 1.20 % ID/g | intake of mouse organ: Liver (PSMA^+ PC-3 PIP tumors; 50 min after injection): 8.73 ± 2.11 % ID/g | intake of mouse organ: Muscle (PSMA^+ PC-3 PIP tumors; 50 min after injection): 3.24 ± 1.07 % ID/g | intake of mouse organ: Tumor (PIP) (PSMA^+ PC-3 PIP tumors; 50 min after injection): 5.03 ± 0.33 % ID/g | intake of mouse organ: Bladder (PSMA^+ PC-3 PIP tumors; 60 min after injection): 4.81 ± 0.24 % ID/g | intake of mouse organ: Heart (PSMA^+ PC-3 PIP tumors; 60 min after injection): 15.03 ± 0.27 % ID/g | intake of mouse organ: Kidney (PSMA^+ PC-3 PIP tumors; 60 min after injection): 10.96 ± 1.18 % ID/g | intake of mouse organ: Liver (PSMA^+ PC-3 PIP tumors; 60 min after injection): 8.22 ± 1.79 % ID/g | intake of mouse organ: Muscle (PSMA^+ PC-3 PIP tumors; 60 min after injection): 3.49 ± 1.28 % ID/g | intake of mouse organ: Tumor (PIP) (PSMA^+ PC-3 PIP tumors; 60 min after injection): 5.45 ± 0.16 % ID/g | intake of mouse organ: Bladder (PSMA^+ PC-3 PIP tumors; 150 min after injection): 18.10 ± 6.51 % ID/g | intake of mouse organ: Heart (PSMA^+ PC-3 PIP tumors; 150 min after injection): 7.85 ± 1.63 % ID/g | intake of mouse organ: Kidney (PSMA^+ PC-3 PIP tumors; 150 min after injection): 11.40 ± 1.13 % ID/g | intake of mouse organ: Liver (PSMA^+ PC-3 PIP tumors; 150 min after injection): 5.00 ± 1.41 % ID/g | intake of mouse organ: Muscle (PSMA^+ PC-3 PIP tumors; 150 min after injection): 2.75 ± 1.20 % ID/g | intake of mouse organ: Tumor (PIP) (PSMA^+ PC-3 PIP tumors; 150 min after injection): 11.00 ± 2.12 % ID/g | intake of mouse organ: Bladder (PSMA^+ PC-3 PIP tumors; 270 min after injection): 20.10 ± 4.53 % ID/g | intake of mouse organ: Heart (PSMA^+ PC-3 PIP tumors; 270 min after injection): 5.10 ± 0.85 % ID/g | intake of mouse organ: Kidney (PSMA^+ PC-3 PIP tumors; 270 min after injection): 9.25 ± 0.78 % ID/g | intake of mouse organ: Liver (PSMA^+ PC-3 PIP tumors; 270 min after injection): 3.60 ± 0.71 % ID/g | intake of mouse organ: Muscle (PSMA^+ PC-3 PIP tumors; 270 min after injection): 2.15 ± 0.78 % ID/g | intake of mouse organ: Tumor (PIP) (PSMA^+ PC-3 PIP tumors; 270 min after injection): 15.70 ± 4.24 % ID/g | intake of mouse organ: Bladder (PSMA^+ PC-3 PIP tumors; 390 min after injection): 14.25 ± 0.64 % ID/g | intake of mouse organ: Heart (PSMA^+ PC-3 PIP tumors; 390 min after injection): 3.80 ± 1.41 % ID/g | intake of mouse organ: Kidney (PSMA^+ PC-3 PIP tumors; 390 min after injection): 7.70 ± 0.71 % ID/g | intake of mouse organ: Liver (PSMA^+ PC-3 PIP tumors; 390 min after injection): 2.25 ± 0.64 % ID/g | intake of mouse organ: Muscle (PSMA^+ PC-3 PIP tumors; 390 min after injection): 1.20 ± 0.56 % ID/g | intake of mouse organ: Tumor (PIP) (PSMA^+ PC-3 PIP tumors; 390 min after injection): 18.25±4.17 % ID/g | excretion, in words (PSMA^+ PC-3 PIP tumors; MicroPET/CT): rapidly excreted out of the body | residence time in the blood, in words (PSMA^+ PC-3 PIP tumors; MicroPET/CT): residence time in the blood was increased | tumor intake over time, in words (PSMA^+ PC-3 PIP tumors; MicroPET/CT): tumor intake continued to increase after 390 minutes

SMILES: O=C(O)CCC(NC(=O)NC(CCCCN(CC(=O)O)C(=O)COCCOCCNC(=O)CN1CCN2CCN3CCN(CC1)CC(=O)[O][Ga]([O]C(=O)C2)[O]C(=O)C3)C(=O)O)C(=O)O (stereo not shown) [Ga-1e]
IC50 (PSMA; [1]): 47.4 ± 1.78 nM | Ki (PSMA; [2]): 12.9 ± 0.49 nM

SMILES: O=C(O)CCC(NC(=O)NC(CCCCN(CC(=O)O)C(=O)COCCOCCNC(=O)C(CCCCNC(=O)CCCc1ccc(I)cc1)NC(=O)CN1CCN2CCN3CCN(CC1)CC(=O)[O][Ga]([O]C(=O)C2)[O]C(=O)C3)C(=O)O)C(=O)O (stereo not shown) [Ga-1h]
IC50 (PSMA): 11 ± 0.35 nM | Ki (PSMA): 3 ± 0.1 nM | binding force / binding capacity to PSMA, in words (PSMA; 22RV1 cells): higher binding capacity than the compound Ga-1e; also recorded: highest binding capacity

Reference: patent US11931431B2, “PSMA-targeted radiopharmaceutical for diagnosing and treating prostate cancer” (FUTURECHEM CO., LTD, priority 2018, dated 2024)
